Source: ChEMBL document CHEMBL1132934, “Multivariate data analysis using D-optimal designs, partial least squares, and response surface modeling: A directional approach for the analysis of farnesyltransferase inhibitors” (J Med Chem, 2000)
Blank lines part the entries; values can stand above or below the molecule they belong to. Active and inactive are the calls of the source. The calls are words filed in the database; no cut-off is given here.

Tests used:
[1] = molecular target: T1, Protein farnesyltransferase (Homo sapiens, UniProt P49354+P49356); test: Inhibition of farnesyltransferase by Ras/SPA assay; type: protein-complex assay
[2] = tested on: HCT-116; test: (§1) […] inhibition of cellular activity in HCT116 colony formation assay; type: functional; conditions: Homo sapiens
[3] = tested on: HCT-116; test: […] inhibition of cellular activity in HCT116 colony formation assay; AI means almost inactive; type: functional; conditions: Homo sapiens
[4] = Binding affinity against Ras SPA enzyme
[5] = molecular target: T1, Protein farnesyltransferase; test: Inhibition of Farnesyltransferase; type: protein-complex assay
[6] = tested on: HCT-116; test: as §1; type: functional, Homo sapiens
[7] = tested on: HCT-116; test: […] inhibition of cellular activity in HCT116 colony formation assay; CA means cytostatic activity; type: functional; conditions: Homo sapiens
[8] = Binding affinity against Ras protein

SMILES: C=C(C(=O)N1C[C@H]2[C@@]3(c4ccccc4)CC[C@H](c4ccccc43)[C@@]2(C(=O)O)C1)c1ccccc1OC (racemic)
- Ki [1]: 25 nM
- IC50 [2]: 720 nM
- AI [3]: inactive

SMILES: COCCCC(=O)N1C[C@H]2[C@@]3(c4ccccc4)CC[C@H](c4ccccc43)[C@@]2(C(=O)O)C1
- Ki [4]: 100000 nM

SMILES: COc1ccccc1CC(=O)N1C[C@H]2[C@@]3(c4ccccc4)CC[C@H](c4ccccc43)[C@@]2(C(=O)O)C1 (racemic)
- IC50 [5]: 200 nM
- IC50 [2]: > 10000 nM

SMILES: COc1ccccc1CC(=O)N1C[C@H]2[C@@]3(c4ccccc4)CC[C@H](c4ccccc43)[C@@]2(C(=O)N[C@H](C)c2ccccc2)C1
- Ki [4]: 2080 nM

SMILES: COc1ccccc1CC(=O)N1C[C@H]2[C@@]3(c4ccccc4)CC[C@](O)(c4ccccc43)[C@@]2(C(=O)O)C1
- Ki [1]: 250 nM

SMILES: COc1ccccc1CC(=O)N1C[C@H]2[C@@]3(c4ccccc4)CC[C@H](c4ccccc43)[C@@]2(C(=O)O)C1
- Ki [1]: 140 nM

SMILES: COc1ccccc1CC(=O)N1C[C@H]2[C@@]3(c4ccccc4)CC[C@H](c4ccccc43)[C@@]2(NC(=O)OCc2ccccc2)C1
- Ki [4]: 100000 nM

SMILES: O=C(Cc1ccccc1OCc1ccccc1)N1C[C@H]2[C@@]3(c4ccccc4)CC[C@H](c4ccccc43)[C@@]2(C(=O)O)C1
- Ki [1]: 32000 nM
- Ki [8]: 32000 nM

SMILES: COc1ccccc1CC(=O)N1C[C@@H]2[C@@H]3CC[C@@](c4ccccc4)(c4ccccc43)[C@@H]2C1
- Ki [1]: 40000 nM

SMILES: COc1ccccc1CC(=O)N1C[C@H]2[C@@]3(c4ccccc4)CC[C@H](c4c(O)cccc43)[C@@]2(C(=O)O)C1
- Ki [1]: 50000 nM

The next lines start with results.

- Ki [4]: 2450 nM
SMILES: COc1ccccc1CC(=O)N1C[C@H]2[C@@]3(c4ccccc4)CC[C@H](c4ccccc43)[C@@]2(C(=O)NN)C1

- Ki [1]: 738 nM
SMILES: COc1ccccc1CC(=O)N1C[C@H]2[C@@]3(c4ccccc4)CC[C@H](c4ccccc43)[C@@]2(C(=O)NCC(=O)O)C1

- Ki [1]: 420 nM
SMILES: CONC(=O)[C@]12CN(C(=O)Cc3ccccc3OC)C[C@H]1[C@@]1(c3ccccc3)CC[C@@H]2c2ccccc21

- Ki [1]: 420 nM
SMILES: C=C(C(=O)N1C[C@H]2[C@@]3(c4ccc5c(c4)CCO5)CC[C@H](c4ccccc43)[C@@]2(C(=O)O)C1)c1ccccc1OC

- IC50 [6]: 59 nM
SMILES: C=C(C(=O)N1C[C@H]2[C@@]3(c4ccc(Br)cc4)CC[C@H](c4ccccc43)[C@@]2(C(=O)O)C1)c1ccccc1OC

- Ki [1]: 25500 nM
SMILES: C=C(C(=O)N1C[C@H]2[C@@]3(c4ccc(OCC(=O)O)cc4)CC[C@H](c4ccccc43)[C@@]2(C(=O)O)C1)c1ccccc1OC

- IC50 [5]: 8 nM
- IC50 [2]: 45 nM
SMILES: C=C(C(=O)N1C[C@H]2[C@@]3(c4ccc(C)cc4)CC[C@H](c4ccccc43)[C@@]2(C(=O)O)C1)c1ccccc1OC (racemic)
- CA [7]: cytostatic activity
